Entries after “also recorded” stand apart in the source; their conditions may differ.
How the values were obtained:
UCP2 = assay: QRT-PCR of UCP2 mRNA in IMR-32 cells; assay type: cell-based, human; settings: 150 ppb, 6 hours
Procedure: (§1) Human IMR-32 cells were seeded on gelatinized 6-well (6.5×10^5 cells/well) or 24-well (1.3×10^5 cells/well) plates. Cells were treated with control (0 ppb) or various compounds for 6 hours or 24 hours. Total RNA from these cells was isolated using Trizol (Invitrogen) according to the manufacturer's protocol, and then incubated with DNase I to remove any potential contaminated genomic DNA. Then RNA samples were subjected to real-time PCR analysis using the Applied-Bioscience's RT kit and predesigned Taqman probes (Invitrogen), as described previously (Lan et al EMBO J 2003). The mRNA levels of UCP1, UCP2, UCP3, SLC25A27 (UCP4), SLC25A14 (UCP5), PSEN1, Nicastrin, GSK3B, MAPK11-14, PPARG, APOE, RCAN1, RCAN1.1, G6PC, INSR, IGF1R and FOXO4 were measured. Three to six samples were analyzed in each treatment group. Data were normalized by Actin B (ACTB) or Glyceraldehyde Phosphate Dehydrogenase (GAPDH) mRNA levels in each sample and are presented as mean±SEM of 3-6 samples.

UCP5 (SLC25A14) = assay: QRT-PCR of UCP5 (SLC25A14) mRNA in IMR-32 cells; assay type: cell-based, human; settings: 150 ppb, 6 hours
Procedure: as §1

PSEN1 = assay: QRT-PCR of PSEN1 mRNA in IMR-32 cells; assay type: cell-based, human
Procedure: as §1
RNA samples were extracted, purified, and subjected to real-time PCR analysis using Applied-Bioscience's RT kit and Taqman probes (Invitrogen) as described previously in Example 4. Protein samples were also prepared from cell lysates and western blot analysis was performed as previously described in Example 4. Data are presented as mean±SEM of 3 protein samples and 4 RNA samples per group. The relative mRNA and protein expression levels of PSEN1 and NICASTRIN, were measured. All primary antibodies were purchased from Cell Signaling Inc., Beverly, Mass.

PSEN2 = PSEN2 expression in IMR-32 cells; assay type: cell-based, human
p38 = assay: Western blot of total p38 protein in IMR-32 cells; assay type: cell-based, human; settings: 150 ppb, 24 hours
Procedure: (§2) IMR-32 cells were seeded on 6-well plates and then treated with control and various compounds for 6 hours and 24 hours, as described above. After treatments, cells were rinsed with ice-cold PBS and lysed in ice-cold RIPA buffer containing complete proteinase and phosphatase inhibitors (Thermo-Fisher Scientific, Waltham, Mass.) on ice for 30 min Cell lysates were collected using a cell scraper and transfer pipette and then centrifuged at 12000×g for 30 min at 4° C. to remove the DNA pellet and obtain the protein extract. Protein levels in the supernatant of these cell lysates were determined using the Pierce Micro-BCA protein assay kit (Thermo Scientific-Piece Biotechnology, Rockford, Ill.) according to the manufacturer's protocol […]
(§3) Positive signals on the membrane blots were detected using Amersham's enhanced chemiluminescence (ECL) Western Blotting Prime Detection reagents (GE healthcare Lifescience, Pittsburgh, Pa.). Images of these luminescence signals on the membrane blots were captured using the LI-COR Odyssey Fc Image system (Lincoln, Nebr.). […] Protein band densities in the Western blots were determined using the Li—COR Image studio software or NIH ImageJ software, and then normalized by ACTB protein level in each sample. […]

[1] = tested on: phosphorylated FOXO4 (pFOXO4 T28); assay: Western blot of phosphorylated FOXO4 in IMR-32 cells; assay type: cell-based, human; settings: for phosphorylation of FOXO4 (pFOXO4) levels: 6 hours; for pFOXO4 Threonine 28 (T28) levels: 24 hours
Procedure: IMR-32 cells were seeded on 6-well plates and then treated with control and various compounds for 6 hours and 24 hours, as described above. After treatments, cells were rinsed with ice-cold PBS and lysed in ice-cold RIPA buffer containing complete proteinase and phosphatase inhibitors (Thermo-Fisher Scientific, Waltham, Mass.) on ice for 30 min Cell lysates were collected using a cell scraper and transfer pipette and then centrifuged at 12000×g for 30 min at 4° C. to remove the DNA pellet and obtain the protein extract. Protein levels in the supernatant of these cell lysates were determined using the Pierce Micro-BCA protein assay kit (Thermo Scientific-Piece Biotechnology, Rockford, Ill.) according to the manufacturer's protocol
For Western blot analysis, five micrograms of total proteins from control (0 ppb)- and compound(s)-treated cells were subjected to SDS-PAGE gel separation and then transferred to PVDF membranes, as described previously (Reddy, Liu et al. 2008 Science). Membranes were blocked in a phosphate-buffered saline (PBS) containing 5% (w/v) of bovine serum albumin (Sigma, St. Louis, Mo.) and incubated with specific primary antibodies followed by the incubation with HRP-conjugated anti-mouse or anti-rabbit secondary antibodies (1:5000 dilution, Cell Signaling Inc.). All primary antibodies except PGC1a (Abcam, Cambridge, Mass.), G6pc (Santa Cruz, Dallas, Tex.) and Actb (Li-Cor, Lincoln, Nebr.) were purchased from Cell Signaling Inc., Beverly, Mass.
Positive signals on the membrane blots were detected using Amersham's enhanced chemiluminescence (ECL) Western Blotting Prime Detection reagents (GE healthcare Lifescience, Pittsburgh, Pa.). Images of these luminescence signals on the membrane blots were captured using the LI-COR Odyssey Fc Image system (Lincoln, Nebr.). The same membrane blot was stripped and re-blotted with another antibody as described in the GE WB ECL-prime-detection protocol (GE Healthcare Lifescience, Pittsburgh, Pa.). Protein band densities in the Western blots were determined using the Li—COR Image studio software or NIH ImageJ software, and then normalized by ACTB protein level in each sample. Data are presented as mean±SEM of three samples per each group.

pAKT = assay: Western blot of pAKT in IMR-32 cells; assay type: cell-based, human; settings: 6 hours and 24 hours
Procedure: as §2, §3

[2] = tested on: primary fetal rat neurons; assay: Cell survival of primary cortical neurons (cell counts); assay type: cell-based; settings: 150 ppb selenium compound(s), 24 hours; Control 100 ± 1.57; mixture: 30 ppb of the element from each compound
Procedure: For primary neurons, dissociated primary cortical neuron cultures were established from E-18 rat embryos as previously described (Lovell et al., Free Radic. Biol. Med. 2000; Lovell et al., Neurobiol. Aging 2001). Studies were carried out on cells 7 days in culture by switching to Locke's solution consisting of 1 mL of 154 mM NaCl, 5.6 mM KCl, 2.3 mM CaCl2, 1.0 mM MgCl2, 3.6 mM NaHCO3, 10 mM glucose, 5 mM HEPES (pH 7.2) with 10 mg/L gentamicin sulfate. Primary neurons were treated for 24 hours in Locke's solution with the indicated selenium and sulfur compounds in Table 5. Cell counts were performed to measure cell survival/toxicity.
The effects of the selenium and sulfur compounds, identified as components of water extracts of selenium-enriched yeast, on neuronal cell survival was also tested. Primary neurons isolated from fetal rat brain were incubated with chemically synthesized individual selenium and sulfur compounds that were identified as components of water extracts of selenium-enriched yeast (Table 5). In this case, the elemental concentration of each compound identified in Table 5 was 150 ppb and, where mixtures were used, the 150 ppb treatment was made up of 30 ppb of the element from each of the five compounds in question.

Structure (SMILES) | UCP2 mRNA expression (UCP2) | UCP5 (SLC25A14) mRNA expression (UCP5 (SLC25A14)) | PSEN1 mRNA expression (PSEN1; 24 hours) | PSEN2 expression (PSEN2) | Total p38 protein levels (p38) | phosphorylation of FOXO4 (pFOXO4) levels [1] | pFOXO4 Threonine 28 (T28) levels [1] | pAKT protein levels (pAKT) | Viable Cell Number (Mean ± SEM, n = 6) [2] | PSEN1 mRNA expression, dose response (PSEN1; 75 ppb and 150 ppb, 24 hours) | PSEN1 mRNA expression (PSEN1; 150 ppb, 6 hours and 24 hours)
C[Se]C[C@H](NC(=O)CC[C@H](N)C(=O)O)C(=O)O [Compound E, γ-L-glutamyl-Se-methyl-L-selenocysteine] | did not have any effect | did not have any effect | stimulated | no downregulation | not observed; also recorded: not Compound E | decrease | decreased | not visibly decreased | 95.69 ± 10.53 |  | 
C[Se]C[C@H]1O[C@@H](n2cnc3c(N)ncnc32)C(O)C1O (stereo in doubt) [Compound C, 5′-deoxy-5′-methylselenoadenosine] | significant decrease; also recorded: inhibited | trend towards decreased; also recorded: trend towards reduced |  | no downregulation | visibly decreased; also recorded: statistically significant decrease | decrease | decreased | not visibly decreased | 101.1 ± 4.22 | Significant dose-dependent decreases | significantly reduced

From US10201558B2, “Compositions of selenoorganic compounds and methods of use thereof” (Alltech, Inc., priority 2014, dated 2019)
